This assay has as its target T1, L-galactono-1,4-lactone dehydrogenase (GalLDH) from pepper fruits (Capsicum annuum, UniProt Q6QD76).
T1 sequence (Q6QD76 38-586): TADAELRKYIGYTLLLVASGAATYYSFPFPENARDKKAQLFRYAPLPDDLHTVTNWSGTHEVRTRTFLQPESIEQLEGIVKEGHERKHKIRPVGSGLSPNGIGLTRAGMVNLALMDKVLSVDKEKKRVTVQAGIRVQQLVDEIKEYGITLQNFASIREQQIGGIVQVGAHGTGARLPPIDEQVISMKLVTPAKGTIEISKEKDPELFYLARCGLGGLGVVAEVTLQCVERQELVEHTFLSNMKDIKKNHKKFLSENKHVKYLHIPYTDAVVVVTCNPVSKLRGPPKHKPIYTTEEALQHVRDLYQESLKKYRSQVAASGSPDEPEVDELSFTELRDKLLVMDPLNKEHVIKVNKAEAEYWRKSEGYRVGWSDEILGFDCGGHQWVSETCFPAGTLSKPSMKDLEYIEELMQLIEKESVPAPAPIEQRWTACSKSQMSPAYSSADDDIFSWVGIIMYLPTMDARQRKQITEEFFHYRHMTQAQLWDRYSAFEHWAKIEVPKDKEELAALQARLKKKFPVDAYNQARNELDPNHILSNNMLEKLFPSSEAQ
The assay can be described thus: spectrophotometric cytochrome c reduction at […] nm. In kind it is biochemical. The note with it: read-out: % inhibition at 0.5 mM and 2 mM.

As to `N[C@@H](CCC(=O)N[C@@H](CS)C(=O)NCC(=O)O)C(=O)O` [GSH, reduced glutathione], the inhibition at 500 µM amounted to 60%.

Broadly, the inhibition is the drop in the measured response relative to a control, in per cent.
